This passage reports IC50 results from patent publication US6096749A, “Pyrrolopyrimidine derivatives having pharmacological activity” (Novartis Corporation, priority 1994, dated 2000).

pIC50: −log10 of the molar value. Values joined by “and” are separate entries in the source; they are usually repeats but may differ in a detail not shown here. Equal entries are not always repeated. Where two headings read alike, the source gives them in different places.

In one experiment the target is T1, EGF-R ICD (Homo sapiens, UniProt P00533).
T1 construct: recombinant intracellular domains of the EGF-receptor (EGF-R ICD)
T1 sequence (P00533 669-1210 limits assumed): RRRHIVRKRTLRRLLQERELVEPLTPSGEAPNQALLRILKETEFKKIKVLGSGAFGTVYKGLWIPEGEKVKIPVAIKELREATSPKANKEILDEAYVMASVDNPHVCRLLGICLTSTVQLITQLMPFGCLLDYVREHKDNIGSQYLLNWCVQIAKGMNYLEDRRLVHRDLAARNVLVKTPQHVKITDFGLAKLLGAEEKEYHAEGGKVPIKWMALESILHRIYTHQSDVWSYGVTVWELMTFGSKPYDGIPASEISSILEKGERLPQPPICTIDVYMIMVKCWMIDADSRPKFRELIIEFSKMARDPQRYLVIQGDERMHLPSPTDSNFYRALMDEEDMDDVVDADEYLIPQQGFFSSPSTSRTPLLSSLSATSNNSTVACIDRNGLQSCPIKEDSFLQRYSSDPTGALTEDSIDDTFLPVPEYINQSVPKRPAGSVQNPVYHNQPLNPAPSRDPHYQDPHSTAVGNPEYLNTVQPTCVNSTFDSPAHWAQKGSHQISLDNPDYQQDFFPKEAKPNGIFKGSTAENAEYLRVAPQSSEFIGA
In words: Inhibitory action on EGF-R ICD (intracellular domains of the EGF receptor) tyrosine protein kinase, Test A. The class given is biochemical. The following applies: concentration at which inhibition is half the maximum inhibition. The source says: Test A) Inhibitory action on EGF-R ICD (ICD=intracellular domains): The test system is described above. The result is given as IC50 in μM (concentration of active ingredient at which inhibition is half the maximum inhibition).
The test system is described above. The result is given as IC50 in μM (concentration of active ingredient at which inhibition is half the maximum inhibition).

For experiment [1], the system named is BALB/c mouse keratinocyte cell line (MK cells). The experiment is described as follows: Inhibitory action on the growth of MK cells (BALB/MK), Test B. The class given is cell-based. The note with it: 72 h, three days incubation, methylene blue staining, Examples 16 to 22. Here is the method:
The test compounds (dissolved in DMSO) are added in a series of concentrations (dilution series), so that the final concentration of DMSO is not grater than 1% (v/v). […] The growth of the MK cells is measured by means of methylene blue staining: after incubation, the cells are fixed with glutaraldehyde, washed with water and stained with 0.05% methylene blue. […] IC50 values are calculated by means of a computer-assisted system using the formula:
IC50 =(ODtest -ODstart)/(ODcontrol
Test B) Inhibitory action on the growth of MK cells: The test system is described in detail above. The result is given as IC50 in μM (concentration of active ingredient at which inhibition is half the maximum inhibition).

Setting [2] is: Example 32, table 3, read-out: IC50 (inhibitory action on the intracellular domains of EGF-R (ICD)).
[3] abbreviates: Examples 16 to 22, read-out: IC50 (Test A: inhibitory action on EGF-R ICD).

Broadly, the pIC50 is the IC50 on a negative log10 scale, so that one unit is a factor of ten. Turning to `COc1cccc(Nc2ncnc3[nH]c4c(c23)CCCC4)c1` [Example 11, 4-(m-Methoxyanilino)-5,6-tetramethylene-7H-pyrrolo[2,3-d]pyrimidine], at EGF-R ICD (setting [2]), the pIC50 is 6.46.
Regarding `Clc1cccc(Nc2ncnc3[nH]c(-c4ccccc4)cc23)c1` [Example 28, 4-(m-Chloroanilino)-6-(phenyl)-7H-pyrrolo[2,3-d]pyrimidine], the pIC50 at EGF-R ICD (setting [2]) was 7.89.
Turning to `Cc1[nH]c2ncnc(Nc3ccc(F)cc3)c2c1C` [Example 20, 4-(p-Fluoroanilino)-5,6-dimethyl-7H-pyrrolo[2,3-d]pyrimidine], the pIC50 at EGF-R ICD (setting [3]) is 6.25; in experiment [1], 4.88.
With `COc1cccc(-c2cc3c(Nc4cccc(Cl)c4)ncnc3[nH]2)c1` [Example 30, 4-(m-Chloroanilino)-6-(3-methoxyphenyl)-7H-pyrrolo[2,3-d]pyrimidine], on EGF-R ICD (setting [2]), the pIC50 is 5.75.
On to `Cc1ccc(Nc2ncnc3[nH]c(C)c(C)c23)cc1` [Example 17, 4-(p-Methylanilino)-5,6-dimethyl-7H-pyrrolo[2,3-d]pyrimidine], for which the pIC50 was 5.72 on EGF-R ICD (setting [3]) and 4.61 in experiment [1].
In the case of `COc1ccc(-c2[nH]c3ncnc(Nc4cccc(Cl)c4)c3c2C)cc1` [Example 29, 4-(m-Chloroanilino)-5-methyl-6-(4-methoxyphenyl)-7H-pyrrolo[2,3-d]-pyrimidine], the pIC50 on EGF-R ICD (setting [2]) is 6.37.
Same read-out and setting: as for `Fc1cccc(Nc2ncnc3[nH]c4c(c23)CCCC4)c1` [Example 9, 4-(m-Fluoroanilino)-5,6-tetramethylene-7H-pyrrolo[2,3-d]pyrimidine], the figure is 6.70.
As for `COc1ccc(OC)c(-c2cc3c(Nc4cccc(Cl)c4)ncnc3[nH]2)c1` [Example 27, 4-(m-Chloroanilino)-6-(2,5-dimethoxyphenyl)-7H-pyrrolo[2,3-d]-pyrimidine], the pIC50 on EGF-R ICD (setting [2]) is 7.48.
On to `COc1ccccc1-c1cc2c(Nc3cccc(Cl)c3)ncnc2[nH]1` [Example 31, 4-(m-Chloroanilino)-6-(2-methoxyphenyl)-7H-pyrrolo[2,3-d]pyrimidine], for which the pIC50 on EGF-R ICD (setting [2]) was 7.72.
Still for that read-out and setting: in the case of `Brc1cccc(Nc2ncnc3[nH]c4c(c23)CCCC4)c1` [Example 8, 4-(m-Bromoanilino)-5,6-tetramethylene-7H-pyrrolo[2,3-d]pyrimidine] it was 7.34; in that of `Cc1[nH]c2ncnc(Nc3cccc(Br)c3)c2c1C` [Example 2, 4-(m-Bromoanilino)-5,6-dimethyl-7H-pyrrolo[2,3-d]pyrimidine], 7.60.
Same read-out and setting: in the case of `Cc1cccc(Nc2ncnc3[nH]c(C)c(C)c23)c1` [Example 5, 4-(m-Methylanilino)-5,6-dimethyl-7H-pyrrolo[2,3-d]pyrimidine] it was 6.24; in that of `Clc1ccc(Nc2ncnc3[nH]c4c(c23)CCCC4)cc1Cl` [Example 15, 4-(m,p-Dichloroanilino)-5,6-tetramethylene-7H-pyrrolo[2,3-d]pyrimidine], 6.82.
On to `Cc1[nH]c2ncnc(Nc3ccccc3F)c2c1C` [Example 19, 4-(o-Fluoroanilino)-5,6-dimethyl-7H-pyrrolo[2,3-d]pyrimidine], for which the results for the pIC50 (at EGF-R ICD (setting [3]); in experiment [1]) were 5.80 and 4.31, respectively.
`Cc1ccc(Nc2ncnc3[nH]c4c(c23)CCCC4)cc1` [Example 22, 4-(4-Methylanilino)-5,6-tetramethylene-7H-pyrrolo[2,3-d]pyrimidine]: the pIC50 at EGF-R ICD (setting [3]) is 6.96; in experiment [1] it was 4.86.
Turning to `FC(F)(F)c1cccc(Nc2ncnc3[nH]c4c(c23)CCCC4)c1` [Example 14, 4-(m-Trifluoromethylanilino)-5,6-tetramethylene-7H-pyrrolo[2,3-d]-pyrimidine], the pIC50 on EGF-R ICD (setting [2]) was 6.44.
On the same count and under the same terms, as for `COc1ccc(-c2cc3c(Nc4cccc(Cl)c4)ncnc3[nH]2)cc1` [Example 26, 4(m-Chloroanilino)-6-(4-methoxyphenyl)-7H-pyrrolo[2,3-d]pyrimidine], the figure is 7.82; as for `Brc1cccc(Nc2ncnc3[nH]c(-c4ccccc4)c(-c4ccccc4)c23)c1` [Example 13, 4-(m-Bromoanilino)-5,6-diphenyl-7H-pyrrolo[2,3-d]pyrimidine], 7.02 and 7.48; as for `Cc1[nH]c2ncnc(Nc3cccc(F)c3)c2c1C` [Example 3, 4-(m-Fluoroanilino)-5,6-dimethyl-7H-pyrrolo[2,3-d]pyrimidine], 6.26.
On the same count and under the same terms, in the case of `Cc1[nH]c2ncnc(Nc3cc(Cl)cc(Cl)c3)c2c1C` [Example 4, 4-(m,m-Dichloroanilino)-5,6-dimethyl-7H-pyrrolo[2,3-d]pyrimidine] it was 6.77.
Take `Cc1[nH]c2ncnc(Nc3ccc(Cl)c(Cl)c3)c2c1C` [Example 18, 4-(m,p-Dichloroanilino)-5,6-dimethyl-7H-pyrrolo[2,3.d]pyrimidine]: the pIC50 at EGF-R ICD (setting [3]) is 7.15; in experiment [1] it was 4.46.
Consider `Cc1cccc(Nc2ncnc3[nH]c4c(c23)CCCC4)c1` [Example 10, 4-(m-Methylanilino)-5,6-tetramethylene-7H-pyrrolo[2,3-d]pyrimidine], for which the pIC50 on EGF-R ICD (setting [2]) is 6.09.
